# In patent US11014911B2, “CDK2 inhibitors” (Pfizer Inc., priority 2019, dated 2021):
# Biological target: CDK2/Cyclin E1 full length (Homo sapiens (Human), UniProt P24941)
# Experiment: CDK2/Cyclin E1 full length mobility shift assay
# Format: biochemical
row,Compound,Ki [nM]
1,"CC[C@H](C)NC(=O)O[C@@H]1CC[C@H](c2cc(NC(=O)Cc3cn(C)nc3OC)n[nH]2)C1 [Example 351, (1R,3S)-3-(3-{[(3-methoxy-1-methyl-1H-pyrazol-4-yl)acetyl]amino}-1H-pyrazol-5-yl)cyclopentyl (2S)-butan-2-ylcarbamate]",2.77
2,"Cn1ccc(CC(=O)Nc2cc([C@H]3CC[C@@H](OC(=O)NC4(C)CC4)C3)[nH]n2)n1 [Example 421, (1R,3S)-3-(3-{[(1-methyl-1H-pyrazol-3-yl)acetyl]amino}-1H-pyrazol-5-yl)cyclopentyl (1-methylcyclopropyl)carbamate]",0.94
3,"CCC(O)CNC(=O)O[C@@H]1CC[C@H](c2cc(NC(=O)Cc3cc(F)cc(F)c3)n[nH]2)C1 (single isomer, unassigned) [Example 543]",1.96
4,"CC1(NC(=O)O[C@@H]2CC[C@H](c3cc(NC(=O)Cc4cc(C(F)F)ccn4)n[nH]3)C2)CC1 [Example 443, (1R,3S)-3-[3-({[4-(difluoromethyl)pyridin-2-yl]acetyl}amino)-1H-pyrazol-5-yl]cyclopentyl (1-methylcyclopropyl)carbamate]",0.36
5,"CCC(O)CNC(=O)O[C@@H]1CC[C@H](c2cc(NC(=O)Cc3cc(F)cc(F)c3)n[nH]2)C1 (single isomer, unassigned) [Example 542]",2.41
6,"Cc1cc(Cl)cnc1CC(=O)Nc1cc([C@H]2CC[C@@H](OC(=O)NC3(C)CC3)C2)[nH]n1 [Example 439, (1R,3S)-3-(3-{[(5-chloro-3-methylpyridin-2-yl)acetyl]amino}-1H-pyrazol-5-yl)cyclopentyl (1-methylcyclopropyl)carbamate]",2.37
7,"O=C(Cc1ccc(C(F)(F)F)nc1)Nc1cc([C@@H]2CC[C@H](OC(=O)NC[C@H]3C[C@@H]3CO)C2)[nH]n1 [Example 580, (1S,3R)-3-[3-({[6-(trifluoromethyl)pyridin-3-yl]acetyl}amino)-1H-pyrazol-5-yl]cyclopentyl {[(1S,2S)-2-(hydroxymethyl)cyclopropyl]-methyl}carbamate]",3.38
8,"Cn1ccc(CC(=O)Nc2cc([C@H]3CC[C@@H](OC(=O)NC4(C)CCOCC4)C3)[nH]n2)n1 [Example 507, (1R,3S)-3-(3-{[(1-methyl-1H-pyrazol-3-yl)acetyl]amino}-1H-pyrazol-5-yl)cyclopentyl (4-methyltetrahydro-2H-pyran-4-yl)carbamate]",3.69
9,"O=C(Cc1cc(F)cc(F)c1)Nc1cc([C@@H]2CC[C@H](OC(=O)NC[C@H]3CCCO3)C2)[nH]n1 [Example 498, (1S,3R)-3-(3-{[(3,5-difluorophenyl)acetyl]amino}-1H-pyrazol-5-yl)cyclopentyl [(2R)-tetrahydrofuran-2-ylmethyl]carbamate]",4.28
10,"COc1cc(CC(=O)Nc2cc([C@@H]3CC[C@H](OC(N)=O)C3)[nH]n2)ccn1 [Example 257, (1S,3R)-3-(3-{[(2-methoxypyridin-4-yl)acetyl]amino}-1H-pyrazol-5-yl)cyclopentyl carbamate]",4.2
11,"CCCNC(=O)O[C@@H]1CC[C@H](c2cc(NC(=O)Cc3cc(C)ncc3S(C)(=O)=O)n[nH]2)C1 [Example 208, (1R,3S)-3-[3-({[2-methyl-5-(methylsulfonyl)pyridin-4-yl]acetyl}amino)-1H-pyrazol-5-yl]cyclopentyl propylcarbamate]",3.18
12,"CC[C@H](C)CNC(=O)O[C@@H]1CC[C@H](c2cc(NC(=O)Cc3cnc(C)o3)n[nH]2)C1 [Example 416, (1R,3S)-3-(3-{[(2-methyl-1,3-oxazol-5-yl)acetyl]amino}-1H-pyrazol-5-yl)cyclopentyl [(2S)-2-methylbutyl]carbamate]",2.27
13,"CC[C@H](C)NC(=O)O[C@@H]1CC[C@H](c2cc(NC(=O)Cc3cn(C(C)C)nn3)n[nH]2)C1 [Example 350, (1R,3S)-3-[3-({[1-(propan-2-yl)-1H-1,2,3-triazol-4-yl]acetyl}amino)-1H-pyrazol-5-yl]cyclopentyl (2S)-butan-2-ylcarbamate]",3.45
14,"COc1cc(C(=O)Nc2cc([C@H]3CC[C@@H](OC(=O)N[C@H](C)CC(F)(F)F)C3)[nH]n2)n(C)n1 [Example 402, (1R,3S)-3-(3-{[(3-methoxy-1-methyl-1H-pyrazol-5-yl)carbonyl]amino}-1H-pyrazol-5-yl)cyclopentyl [(2R)-4,4,4-trifluorobutan-2-yl]carbamate]",1.54
15,"CC(C)NC(=O)O[C@@H]1CC[C@H](c2cc(NC(=O)Cc3cccc4scnc34)n[nH]2)C1 [Example 283, (1R,3S)-3-{3-[(1,3-benzothiazol-4-ylacetyl)amino]-1H-pyrazol-5-yl}cyclopentyl propan-2-ylcarbamate]",4.6
16,"COC[C@H](C)NC(=O)O[C@@H]1CC[C@H](c2cc(NC(=O)Cc3ncc(OC)s3)n[nH]2)C1 [Example 522, (1R,3S)-3-(3-{[(5-methoxy-1,3-thiazol-2-yl)acetyl]amino}-1H-pyrazol-5-yl)cyclopentyl [(2S)-1-methoxypropan-2-yl]carbamate]",3.05
17,"C[C@H]1CCC[C@H]1NC(=O)O[C@@H]1CC[C@H](c2cc(NC(=O)Cc3ccno3)n[nH]2)C1 [Example 461, (1R,3S)-3-{3-[(1,2-oxazol-5-ylacetyl)amino]-1H-pyrazol-5-yl}cyclopentyl [(1R,2S)-2-methylcyclopentyl]carbamate]",1.75
18,"CCNC(=O)O[C@@H]1CC[C@H](c2cc(NC(=O)Cc3cccc4ncsc34)n[nH]2)C1 [Example 235, (1R,3S)-3-{3-[(1,3-benzothiazol-7-ylacetyl)amino]-1H-pyrazol-5-yl}cyclopentyl ethylcarbamate]",2.33
19,"O=C(Cc1cc(F)cc(F)c1)Nc1cc([C@@H]2CC[C@H](OC(=O)NC[C@H]3C[C@@H]3CO)C2)[nH]n1 [Example 579, (1S,3R)-3-(3-{[(3,5-difluorophenyl)acetyl]amino}-1H-pyrazol-5-yl)cyclopentyl {[(1S,2S)-2-(hydroxymethyl)cyclopropyl]-methyl}carbamate]",2.41
20,"COc1cnc(CC(=O)Nc2cc([C@H]3CC[C@@H](OC(=O)NC4(C)CCOC4)C3)[nH]n2)cn1 (single isomer, unassigned) [Example 486]",1.46
21,"COc1cc(CC(=O)Nc2cc([C@H]3CC[C@@H](OC(=O)NC4CCOCC4)C3)[nH]n2)ccn1 [Example 504, (1R,3S)-3-(3-{[(2-methoxypyridin-4-yl)acetyl]amino}-1H-pyrazol-5-yl)cyclopentyl tetrahydro-2H-pyran-4-ylcarbamate]",3.64

# Second part, the compound after the results:
row,Ki [nM],Compound
1,2.95,"CC[C@H](C)NC(=O)O[C@@H]1CC[C@H](c2cc(NC(=O)c3cnn(C)c3)n[nH]2)C1 [Example 320, (1R,3S)-3-(3-{[(1-methyl-1H-pyrazol-4-yl)carbonyl]amino}-1H-pyrazol-5-yl)cyclopentyl (2S)-butan-2-ylcarbamate]"
2,2.23,"CC(=O)N1CCC(CNC(=O)O[C@H]2CC[C@@H](c3cc(NC(=O)Cc4cc(F)cc(F)c4)n[nH]3)C2)CC1 [Example 582, (1S,3R)-3-(3-{[(3,5-difluorophenyl)acetyl]amino}-1H-pyrazol-5-yl)cyclopentyl [(1-acetylpiperidin-4-yl)methyl]carbamate]"
3,2.12,"COc1cnc(CC(=O)Nc2cc([C@H]3CC[C@@H](OC(=O)NC(C)C)C3)[nH]n2)s1 [Example 280, (1R,3S)-3-(3-{[(5-methoxy-1,3-thiazol-2-yl)acetyl]amino}-1H-pyrazol-5-yl)cyclopentyl propan-2-ylcarbamate]"
4,0.19,CC[C@H](C)NC(=O)O[C@@H]1CC[C@H](c2cc(NC(=O)Cc3ccccc3S(N)(=O)=O)n[nH]2)C1 [Example 49]
5,0.63,"Cc1ccnc(CC(=O)Nc2cc([C@H]3CC[C@@H](OC(=O)NC(C)(C)C)C3)[nH]n2)c1Cl [Example 313, (1R,3S)-3-(3-{[(3-chloro-4-methylpyridin-2-yl)acetyl]amino}-1H-pyrazol-5-yl)cyclopentyl tert-butylcarbamate]"
6,2.28,"CCCNC(=O)O[C@H]1CC[C@@H](c2cc(NC(=O)Cc3c[nH]cn3)n[nH]2)C1 [Example 165, (1S,3R)-3-{3-[(1H-imidazol-4-ylacetyl)amino]-1H-pyrazol-5-yl}cyclopentyl propylcarbamate]"
7,2.24,"CC[C@H](C)NC(=O)O[C@@H]1CC[C@H](c2cc(NC(=O)Cc3c(C)noc3C)n[nH]2)C1 [Example 340, (1R,3S)-3-(3-{[(3,5-dimethyl-1,2-oxazol-4-yl)acetyl]amino}-1H-pyrazol-5-yl)cyclopentyl (2S)-butan-2-ylcarbamate]"
8,2.27,"COc1cnc(CC(=O)Nc2cc([C@H]3CC[C@@H](OC(=O)N4CC[C@@H]4C)C3)[nH]n2)cn1 [Example 592, (1R,3S)-3-(3-{[(5-methoxypyrazin-2-yl)acetyl]amino}-1H-pyrazol-5-yl)cyclopentyl (2S)-2-methylazetidine-1-carboxylate]"
9,2.06,"CCNC(=O)O[C@@H]1CC[C@H](c2cc(NC(=O)Cc3cnc(C)s3)n[nH]2)C1 [Example 229, (1R,3S)-3-(3-{[(2-methyl-1,3-thiazol-5-yl)acetyl]amino}-1H-pyrazol-5-yl)cyclopentyl ethylcarbamate]"
10,0.52,"Cc1nnc(CC(=O)Nc2cc([C@H]3CC[C@@H](OC(=O)NC(C)(C)C)C3)[nH]n2)s1 [Example 305, (1R,3S)-3-(3-{[(5-methyl-1,3,4-thiadiazol-2-yl)acetyl]amino}-1H-pyrazol-5-yl)cyclopentyl tert-butylcarbamate]"
11,2.21,"COCCn1nccc1C(=O)Nc1cc([C@H]2CC[C@@H](OC(=O)N3CC[C@H]3C)C2)[nH]n1 [Example 593, (1R,3S)-3-[3-({[1-(2-methoxyethyl)-1H-pyrazol-5-yl]carbonyl}amino)-1H-pyrazol-5-yl]cyclopentyl (2R)-2-methylazetidine-1-carboxylate]"
12,3.16,"CCN(C)C(=O)O[C@@H]1CC[C@H](c2cc(NC(=O)Cc3ccno3)n[nH]2)C1 [Example 236, (1R,3S)-3-{3-[(1,2-oxazol-5-ylacetyl)amino]-1H-pyrazol-5-yl}cyclopentyl ethyl(methyl)carbamate]"
13,1.32,"COCCn1nccc1C(=O)Nc1cc([C@H]2CC[C@@H](OC(=O)NC(C)CC(F)(F)F)C2)[nH]n1 (single isomer, unassigned) [Example 87]"
14,0.84,"CC[C@H](C)NC(=O)O[C@@H]1CC[C@H](c2cc(NC(=O)Cc3ccccc3S(C)(=N)=O)n[nH]2)C1 (single isomer, unassigned) [Example 369]"
